From patent US20210317099A1, “SAFER, POTENT, AND FAST ACTING ANTIMICROBIAL AGENTS” (Purdue Research Foundation, priority 2020, published 2021)
Values after ≈ are worked out from the molar mass of the structure shown.

Columns and labels:
Format in all cases: cell-based
[1] = tested on: murine macrophage (J774) cell line; assay: In vitro cytotoxicity, MTS assay; conditions: J774, 24 hours incubation
Method: Compounds were assayed against a murine macrophage (J774) cell line to determine their in vitro potential toxic effect. Cells were cultured in Dulbecco's Modified Eagle Medium (DMEM) supplemented with 10% FBS at 37° C. with 5% CO2. Control cells received DMSO alone at a concentration equal to that in drug-treated cell samples. The cells were incubated with the compounds (in triplicate) in a 96-well plate at 37° C. with 5% CO2 for 24 hours. The assay reagent MTS; 3-(4,5-dimethylthiazol-2-yl)-5-(3-carboxymethoxyphenyl)-2-(4-sulfophenyl)-2H-tetrazolium) (Promega, Madison, Wis., USA) was subsequently added and the plate was incubated for three to four hours. Absorbance readings (at OD490) were recorded using a kinetic microplate reader (Molecular Devices, Sunnyvale, Calif., USA). The quantity of viable cells after treatment with each compound was expressed as a percentage of the viability relative to DMSO-treated control cells (average of triplicate wells±standard deviation). FIG. 5. […] Results are presented as percent viable mammalian cells (measured as average absorbance ratio relative to DMSO). The absorbance values represent an average of a minimum of three samples analyzed for each compound. Error bars represent standard deviation values for the absorbance values.

MRSA NRS 123 = assay: MIC, Gram-positive panel; conditions: Staphylococcus aureus; MRSA NRS 123; read-out: MIC
How it was run: (§1)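 Broth microdilution: staphylococci grown overnight on tryptone soya agar at 37° C, suspended to 0.5 McFarland and diluted in cation-adjusted Mueller-Hinton broth. Compounds were serially diluted in the bacteria-containing medium, and plates were incubated aerobically at 37° C for 18-20 hours.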

S. aureus NRS 107 = assay: MIC, Gram-positive panel; conditions: Staphylococcus aureus, NRS107; S. aureus NRS 107; read-out: MIC
How it was run: as §1

MRSA NRS 386 = assay: MIC, Gram-positive panel; conditions: Staphylococcus aureus; MRSA NRS 386; read-out: MIC
How it was run: as §1

[2] = tested on: Methicillin-resistant S. epidermidis NRS101; assay: MIC, Gram-positive panel; conditions: Staphylococcus epidermidis; Methicillin-resistant S. epidermidis NRS101; read-out: MIC
How it was run: as §1

S. aureus ATCC 6538 = assay: MIC, Gram-positive panel; conditions: Staphylococcus aureus, ATCC6538; S. aureus ATCC 6538; read-out: MIC
How it was run: as §1

VRSA 12 = assay: MIC, Gram-positive panel; conditions: Staphylococcus aureus; VRSA 12; read-out: MIC
How it was run: as §1

[3] = tested on: Methicillin-resistant S. pneumoniae ATCC 700677; assay: MIC, Gram-positive panel; conditions: Streptococcus pneumoniae, ATCC700677; Methicillin-resistant S. pneumoniae ATCC 700677; read-out: MIC
How it was run: (§2)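 Overnight TSA cultures (37° C) → 0.5 McFarland suspension → dilution in CAMHB; test compounds serially diluted in inoculated broth; aerobic incubation at 37° C, 18-20 h.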

[4] = tested on: Enterococcus faecalis ATCC 51299 (VRE); assay: MIC, Gram-positive panel; conditions: Enterococcus faecalis ATCC 51299 (VRE); read-out: MIC
How it was run: as §2

MRSA NRS 119 = assay: MIC, Gram-positive panel; conditions: Staphylococcus aureus; MRSA NRS 119; read-out: MIC
How it was run: as §1

MRSA NRS 385 = assay: MIC, Gram-positive panel; conditions: Staphylococcus aureus; MRSA NRS 385; read-out: MIC
How it was run: as §1

S. pneumoniae ATCC 51916 = assay: MIC, Gram-positive panel; conditions: Streptococcus pneumoniae, ATCC51916; S. pneumoniae ATCC 51916; read-out: MIC
How it was run: as §2

[5] = tested on: human colorectal adenocarcinoma (Caco-2) cell; assay: In vitro cytotoxicity, MTS assay
Method: Compounds 144, 148, 151, 155, 158, and 187 were assayed (at concentrations of 16, 32, and 64 μg/mL) against a human colorectal adenocarcinoma (Caco-2) cell to determine the potential toxic effect to mammalian cells in vitro. Briefly, cells were cultured in Dulbecco's Modified Eagle Medium (DMEM) supplemented with 10% fetal bovine serum (FBS), non-essential amino acids (1×), penicillin-streptomycin at 37° C. in presence of 5% CO2. Control cells received DMSO alone at a concentration equal to that in drug-treated wells. The cells were incubated with the compounds (in triplicate) in a 96-well plate at 37° C. with 5% CO2 for two hours. This was followed by the subsequent addition of the assay reagent MTS 3-(4,5-dimethylthiazol-2-yl)-5-(3-carboxymethoxyphenyl)-2-(4-sulfophenyl)-2H-tetrazolium) (Promega, Madison, Wis., USA) and the plate was incubated for three to four hours. Absorbance readings (at OD490) were recorded using a kinetic microplate reader (Molecular Devices, Sunnyvale, Calif., USA). The quantity of viable cells after treatment with each compound was expressed as a percentage of the viability of DMSO-treated control cells (average of triplicate wells±standard deviation).
FIG. 3. Analyzing the toxicity of 144, 148, 151, 155, 158, and 187 compounds (tested in triplicates at 16, 32 and 64 μg/mL) against human colorectal cells (Caco-2) using the MTS 3-(4,5-dimethylthiazol-2-yl)-5-(3-carboxymethoxyphenyl)-2-(4-sulfophenyl)-2H-tetrazolium) assay. Results are presented as percent viable cells relative to DMSO (negative control) to determine a baseline measurement for the cytotoxic impact of each compound. The absorbance values represent an average of three samples analyzed for each compound. Error bars represent standard deviation values. The data were analyzed via a two-way ANOVA with post-hoc Dunnett's test for multiple comparisons. An asterisk (*) denotes statistical significance (P<0.05) between results for compounds and DMSO.

| SMILES | concentration tolerable to J774 cells [1] [ng/mL] | MIC (MRSA NRS 123) [µg/mL] | MIC (S. aureus NRS 107) [µg/mL] | MIC (MRSA NRS 386) [µg/mL] | MIC [2] [µg/mL] | MIC (S. aureus ATCC 6538) [µg/mL] | MIC (VRSA 12) [µg/mL] | MIC [3] [µg/mL] | MIC [4] [µg/mL] | MIC (MRSA NRS 119) [µg/mL] | MIC (MRSA NRS 385) [µg/mL] | MIC (S. pneumoniae ATCC 51916) [µg/mL] | viable cells ([5]; Caco-2, at 32 μg/mL, relative to DMSO) [%] | non-toxic concentration to Caco-2 cells ([5]; Caco-2, two hours incubation, MTS) [µg/mL] |
| --- | --- | --- | --- | --- | --- | --- | --- | --- | --- | --- | --- | --- | --- | --- |
| C=C(C(=O)OC)C(c1ccc2ccccc2c1)C(O)c1cccc2ccccc12 (centres unmarked) [Compound 148] | ≤ 8000 | 1 (≈ 2.61 µM) | 1 (≈ 2.61 µM) | 1 (≈ 2.61 µM) | 1 (≈ 2.61 µM) | 1 (≈ 2.61 µM) | 2 (≈ 5.23 µM) | 1 (≈ 2.61 µM) | > 64 | 1 (≈ 2.61 µM) | 1 (≈ 2.61 µM) | 1 (≈ 2.61 µM) | – | – |
| C=C1C(=O)O[C@H](c2ccccc2)[C@@H]1c1cccc2ccccc12 [Compound 151] | – | 2 (≈ 6.66 µM) | 2 (≈ 6.66 µM) | 1 (≈ 3.33 µM) | 8 (≈ 26.6 µM) | 2 (≈ 6.66 µM) | 2 (≈ 6.66 µM) | 4 (≈ 13.3 µM) | > 64 | 2 (≈ 6.66 µM) | 1 (≈ 3.33 µM) | 4 (≈ 13.3 µM) | – | – |
| C=C1C(=O)O[C@H](c2cccc3ccccc23)[C@@H]1c1ccc2ccccc2c1 [Compound 155] | – | 1 (≈ 2.85 µM) | 1 (≈ 2.85 µM) | 1 (≈ 2.85 µM) | 1 (≈ 2.85 µM) | 1 (≈ 2.85 µM) | 2 (≈ 5.71 µM) | 1 (≈ 2.85 µM) | > 64 | 1 (≈ 2.85 µM) | 1 (≈ 2.85 µM) | 1 (≈ 2.85 µM) | 100 | ≤ 32 |
| C=C1C(=O)O[C@H](c2ccc3ccccc3c2)[C@@H]1c1ccc2ccccc2c1 [Compound 158] | – | 1 (≈ 2.85 µM) | 1 (≈ 2.85 µM) | 1 (≈ 2.85 µM) | 0.5 (≈ 1.43 µM) | 1 (≈ 2.85 µM) | 2 (≈ 5.71 µM) | 2 (≈ 5.71 µM) | > 64 | 1 (≈ 2.85 µM) | 1 (≈ 2.85 µM) | 2 (≈ 5.71 µM) | – | – |
